A value given as a limit tells only on which side of the number the result lay.

For the first test, the system named is MV-4-11 cells. As to the kind of experiment: Inhibition of tumor cell proliferation (CellTiter-Glo). The test is classed as cell-based. The note with it: Homo sapiens, MV4-11, 72 h, read-out: IC50 of inhibitory activity of tumor cell proliferation. As for the experimental part: MV-4-11 cells were diluted with medium (RPM1640+10% FBS+1% PS) and plated at 4000 cells/well in a white-walled clear-bottom 96-well plate. MV-4-11 cells were plated and incubated in a 5% CO2, 37° C. incubator for 2 hours. Cells were treated with the indicated concentration of compound or DMSO (control), and placed in a 5% CO2, 37° C. incubator for 72 h after dosing. After the end of the culture, equilibrate at room temperature for 30 min, add 100 μl of CellTiter-Glo® Reagent to each well, and shake the microplate shaker for 2 min. After 10 min of incubation at room temperature, the luminescence was measured by a microplate reader, and the cell-free wells were used as the background wells. CC-90009 (celegen patent phase I) was used as a control, and its structural formula was as follows: 0
Background: ATP-based viability assays read luminescence as a measure of living cells.
`COP(=O)(OC)Oc1ccc(C#CC(=O)NCc2ccc3c(c2)CN(C2CCC(=O)NC2=O)C3=O)cc1` (stereo not shown) [Compound 80]: the IC50 lay in the range of 10 to 100 nM.
For `O=C(C#Cc1ccc(OC(=O)N2CCC(N3CCCCC3)CC2)cc1)NCc1ccc2c(c1)CN(C1CCC(=O)NC1=O)C2=O` (stereo not shown) [Compound 72], the IC50 is above 100 nM.
On the same count and under the same terms, then `CC1(C)COP(=O)(Oc2ccc(C#CC(=O)NCc3ccc4c(c3)CN(C3CCC(=O)NC3=O)C4=O)cc2)OC1` (stereo not shown) [Compound 82], with 10 to 100 nM; and `CC1(C)COP(=O)(Oc2ccccc2C#CC(=O)NCc2ccc3c(c2)CN(C2CCC(=O)NC2=O)C3=O)OC1` (stereo not shown) [Compound 97], with 1 to 10 nM; and `O=C(C#Cc1ccccc1OC(=O)N1CCC(N2CCCCC2)CC1)NCc1ccc2c(c1)CN(C1CCC(=O)NC1=O)C2=O` (stereo not shown) [Compound 74], with above 100 nM.

The test is the same for the next values; noted with them: Homo sapiens, MV4-11; MV-4-11 cells, 72 h, CellTiter-Glo; read-out: IC50 of inhibitory activity of tumor cell proliferation.
For the molecule `O=C(C#CC(O)c1ccccc1)NCc1ccc2c(c1)CN(C1CCC(=O)NC1=O)C2=O` (stereo not shown) [Compound 115], the IC50 is above 100 nM.
Still for that read-out and setting: then `Cc1c(O)cccc1C#CC(=O)NCc1ccc2c(c1)CN(C1CCC(=O)NC1=O)C2=O` (stereo not shown) [Compound 114], with 1 to 10 nM; and `Nc1ccc(-c2ccc(C#CC(=O)NCc3ccc4c(c3)CN(C3CCC(=O)NC3=O)C4=O)cc2)cc1` (stereo not shown) [Compound 56], with below 1 nM.
Still for that read-out and setting: the figure for `O=C(C#Cc1ccc(Cl)cc1F)NCc1ccc2c(c1)CN(C1CCC(=O)NC1=O)C2=O` (stereo not shown) [Compound 4] is below 1 nM; for `Cc1ccnc(Cl)c1C#CC(=O)NCc1ccc2c(c1)CN(C1CCC(=O)NC1=O)C2=O` (stereo not shown) [Compound 67] it is 1 to 10 nM.
Turning to `O=C(C#Cc1ccc(F)cc1[N+](=O)[O-])NCc1ccc2c(c1)CN(C1CCC(=O)NC1=O)C2=O` (stereo not shown) [Compound 49], the IC50 was 1 to 10 nM.
Still for that read-out and setting: then `CCCC(=O)OCOC(=O)c1ccccc1C#CC(=O)NCc1ccc2c(c1)CN(C1CCC(=O)NC1=O)C2=O` (stereo not shown) [Compound 94], with above 100 nM; and `O=C(C#Cc1ccc(C(F)(F)F)nc1)NCc1ccc2c(c1)CN(C1CCC(=O)NC1=O)C2=O` (stereo not shown) [Compound 60], with 10 to 100 nM.
Turning to `Nc1cccc(C#CC(=O)NCc2ccc3c(c2)CN(C2CCC(=O)NC2=O)C3=O)c1` (stereo not shown) [Compound 84], the IC50 lay in the range of 1 to 10 nM.
Take `O=C(C#Cc1ccc2[nH]ncc2c1F)NCc1ccc2c(c1)CN(C1CCC(=O)NC1=O)C2=O` (stereo not shown) [Compound 130]: the IC50 is 1 to 10 nM.
Still for that read-out and setting: then `Cc1c(C#CC(=O)NCc2ccc3c(c2)CN(C2CCC(=O)NC2=O)C3=O)cccc1C(=O)O` (stereo not shown) [Compound 92], with above 100 nM; and `CC(C)(C)OC(=O)N1CCCCC1C#CC(=O)NCc1ccc2c(c1)CN(C1CCC(=O)NC1=O)C2=O` (stereo not shown) [Compound 63], with below 1 nM; and `O=C(C#Cc1c(F)cccc1F)NCc1ccc2c(c1)CN(C1CCC(=O)NC1=O)C2=O` (stereo not shown) [Compound 9], with below 1 nM.
Take `O=C(C#Cc1cccc(Br)c1)NCc1ccc2c(c1)CN(C1CCC(=O)NC1=O)C2=O` (stereo not shown) [Compound 18]: the IC50 was below 1 nM.
On the same count and under the same terms, the figure for `O=C(C#Cc1ccccc1Cl)NCc1ccc2c(c1)CN(C1CCC(=O)NC1=O)C2=O` (stereo not shown) [Compound 8] is below 1 nM; for `Cc1cc(F)c(C#CC(=O)NCc2ccc3c(c2)CN(C2CCC(=O)NC2=O)C3=O)c(F)c1` (stereo not shown) [Compound 13] it is below 1 nM; for `O=C(C#Cc1cc(C(=O)O)c(F)cc1F)NCc1ccc2c(c1)CN(C1CCC(=O)NC1=O)C2=O` (stereo not shown) [Compound 91] it is 1 to 10 nM.
The same measure, in the same setting: the figure for `CC(=O)c1cccc(C#CC(=O)NCc2ccc3c(c2)CN(C2CCC(=O)NC2=O)C3=O)c1` (stereo not shown) [Compound 117] is below 1 nM; for `Cn1nccc1C#CC(=O)NCc1ccc2c(c1)CN(C1CCC(=O)NC1=O)C2=O` (stereo not shown) [Compound 44] it is above 100 nM.
`O=C(C#Cc1ccc2[nH]ncc2c1)NCc1ccc2c(c1)CN(C1CCC(=O)NC1=O)C2=O` (stereo not shown) [Compound 107]: the IC50 was 10 to 100 nM.
Regarding `Nc1ccc(C#CC(=O)NCc2ccc3c(c2)CN(C2CCC(=O)NC2=O)C3=O)c(F)c1` (stereo not shown) [Compound 48], the IC50 was in the range of 1 to 10 nM.
For the molecule `O=C(C#Cc1ccc(O)c(Cl)c1)NCc1ccc2c(c1)CN(C1CCC(=O)NC1=O)C2=O` (stereo not shown) [Compound 101], the IC50 fell in the range of 10 to 100 nM.
Same read-out and setting: then `O=C(C#Cc1ccc(F)c([N+](=O)[O-])c1)NCc1ccc2c(c1)CN(C1CCC(=O)NC1=O)C2=O` (stereo not shown) [Compound 53], with 10 to 100 nM.
For the molecule `O=C(C#Cc1ccc2ncsc2c1)NCc1ccc2c(c1)CN(C1CCC(=O)NC1=O)C2=O` (stereo not shown) [Compound 120], the IC50 was 1 to 10 nM.
With `O=C(O)CCC(=O)Oc1ccccc1C#CC(=O)NCc1ccc2c(c1)CN(C1CCC(=O)NC1=O)C2=O` (stereo not shown) [Compound 88], the IC50 is 1 to 10 nM.
On the same count and under the same terms, then `CCOC(=O)c1ccc(C#CC(=O)NCc2ccc3c(c2)CN(C2CCC(=O)NC2=O)C3=O)nc1` (stereo not shown) [Compound 29], with above 100 nM; and `O=C(C#CC1CC1)NCc1ccc2c(c1)CN(C1CCC(=O)NC1=O)C2=O` (stereo not shown) [Compound 61], with above 100 nM.
In the case of `O=C(C#Cc1ccc(O)cc1Cl)NCc1ccc2c(c1)CN(C1CCC(=O)NC1=O)C2=O` (stereo not shown) [Compound 109], the IC50 lay in the range of 1 to 10 nM.
Same read-out and setting: the figure for `Cc1ccc(C#CC(=O)NCc2ccc3c(c2)CN(C2CCC(=O)NC2=O)C3=O)s1` (stereo not shown) [Compound 36] is below 1 nM; for `O=C(C#Cc1ccc(C(=O)O)cc1)NCc1ccc2c(c1)CN(C1CCC(=O)NC1=O)C2=O` (stereo not shown) [Compound 26] it is above 100 nM; for `CC(=O)c1ccccc1C#CC(=O)NCc1ccc2c(c1)CN(C1CCC(=O)NC1=O)C2=O` (stereo not shown) [Compound 116] it is 1 to 10 nM.
For the molecule `Cn1cnc2ccc(C#CC(=O)NCc3ccc4c(c3)CN(C3CCC(=O)NC3=O)C4=O)cc21` (stereo not shown) [Compound 132], the IC50 is 10 to 100 nM.
For `O=C(C#CCN1CCCC1)NCc1ccc2c(c1)CN(C1CCC(=O)NC1=O)C2=O` (stereo not shown) [Compound 125], the IC50 is above 100 nM.
Take `O=C(C#CCO)NCc1ccc2c(c1)CN(C1CCC(=O)NC1=O)C2=O` (stereo not shown) [Compound 22]: the IC50 was above 100 nM.
The same measure, in the same setting: the figure for `O=C(C#Cc1nc2ccccc2s1)NCc1ccc2c(c1)CN(C1CCC(=O)NC1=O)C2=O` (stereo not shown) [Compound 106] is 10 to 100 nM; for `CC(C)(C)OC(=O)CCC(=O)Oc1ccccc1C#CC(=O)NCc1ccc2c(c1)CN(C1CCC(=O)NC1=O)C2=O` (stereo not shown) [Compound 89] it is 1 to 10 nM.
The same measure, in the same setting: the figure for `O=C(C#Cc1ccc(F)nc1)NCc1ccc2c(c1)CN(C1CCC(=O)NC1=O)C2=O` (stereo not shown) [Compound 38] is 1 to 10 nM; for `O=C(C#Cc1ccccc1C(=O)O)NCc1ccc2c(c1)CN(C1CCC(=O)NC1=O)C2=O` (stereo not shown) [Compound 75] it is above 100 nM; for `O=C(C#CN1CCCC1)NCc1ccc2c(c1)CN(C1CCC(=O)NC1=O)C2=O` (stereo not shown) [Compound 126] it is above 100 nM.
Turning to `Cn1cnc(C#CC(=O)NCc2ccc3c(c2)CN(C2CCC(=O)NC2=O)C3=O)c1` (stereo not shown) [Compound 33], the IC50 is above 100 nM.
The same measure, in the same setting: then `O=C(C#Cc1ccc(-c2ccc([N+](=O)[O-])cc2)cc1)NCc1ccc2c(c1)CN(C1CCC(=O)NC1=O)C2=O` (stereo not shown) [Compound 55], with below 1 nM.
The same measure, in the same setting: the figure for `O=C(C#Cc1c(Cl)ccnc1Cl)NCc1ccc2c(c1)CN(C1CCC(=O)NC1=O)C2=O` (stereo not shown) [Compound 66] is 1 to 10 nM.
On the same count and under the same terms, then `O=C(C#Cc1ccc(F)cc1)NCc1ccc2c(c1)CN(C1CCC(=O)NC1=O)C2=O` (stereo not shown) [Compound 3], with below 1 nM; and `CC1=C(C(=O)NCc2ccc3c(c2)CN(C2CCC(=O)NC2=O)C3=O)C(=O)c2ccccc21` (stereo not shown) [Compound 119], with above 100 nM.

Source of the values: patent US20240368113A1, “AMIDE COMPOUND AND USE THEREOF” (Chengdu Fendi Pharmaceutical Co. Ltd., priority 2021, published 2024).
